From PubChem BioAssay (NCI)
“And” between values parts separate entries of the source, which are not always exact repeats. Identical values can stand only once.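 These data come from cells grown in 96-well plates and exposed to compound for 48 hours at five concentrations. GI50 marks 50% less growth. The concentration for full growth arrest is given as TGI.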

Columns and labels:
Assay in all cases: inhibition of tumour cell growth, NCI panel, 48 h
[1] = tested on: CCRF-CEM leukemia
[2] = tested on: HL-60(TB) leukemia
[3] = tested on: HOP-18 NSCLC
[4] = tested on: K-562 leukemia
[5] = tested on: LXFL 529 NSCLC
[6] = tested on: SF-539 CNS
[7] = tested on: SF-268 CNS
[8] = tested on: DU-145 prostate
[9] = tested on: MCF7 breast
[10] = tested on: MDA-MB-231 breast

Structure (SMILES)	TGI [1]	TGI [2]	TGI [3]	TGI [4]	TGI [5]	TGI [6]	GI50 [1]	GI50 [2]	GI50 [3] [µM]	GI50 [4]	GI50 [5] [µM]	GI50 [7]	TGI [7]	GI50 [6]	GI50 [8]	TGI [8]	GI50 [9]	GI50 [10]	TGI [10]	TGI [9] [µM]
COc1ccc(C(=O)O/N=C2/CCCCC2CN(C)C)cc1 (stereo unspecified)	> 100 µM	> 100 µM	> 100 µM	> 100 µM	> 100 µM	> 100 µM														
CC(=O)[O-].[Mn+3].[O-]c1ccc(Cl)cc1C=NCCN=Cc1cc(Cl)ccc1[O-]	> 100 µM	> 100 µM	> 100 µM	> 100 µM	> 100 µM	74.3 µM	22.2 µM	50.7 µM	51.9	> 100 µM	> 100	> 100 µM	> 100 µM	36 µM						
COc1ccc2c(c1)[n+](=O)c(C(C)=O)c(C)n2[O-]		> 100 µM	> 100 µM	> 100 µM	> 100 µM	> 100 µM							> 100 µM							
Nc1nc(=S)c2[nH]cnc2[nH]1		9.38 µM and 17.5 µM and 2.37 µM	139 µM	74.1 µM and 8.6 µM	233 µM	68.8 µM [middle of 4 runs]	0.227 µM and 0.314 µM and 0.488 µM	0.894 µM		0.488 µM		0.525 µM and 0.926 µM	> 100 µM and 149 µM and 84 µM	0.483 µM and 0.606 µM and 1.41 µM	0.477 µM and 0.538 µM	> 32.1 µM and 144 µM and 28.7 µM	0.325 µM and 0.547 µM and 1.02 µM	0.323 µM and 1.36 µM	> 100 µM and 150 µM and > 250 µM	
CC1CC(C)C(C(O)CC2CC(=O)N(c3ccccc3)C(=O)C2)C(O)C1 (stereo unspecified)	> 100 µM	> 100 µM	> 100 µM	> 100 µM	> 100 µM	> 100 µM							> 100 µM							
N#CCCN(CCC#N)c1ccc(C=Nc2ccc(F)cc2)cc1	> 100 µM	> 100 µM	> 100 µM	> 100 µM	> 100 µM	> 83.2 µM							> 100 µM			> 100 µM			> 100 µM	> 100
COC(=O)c1sc(=NC(=S)N2CCCCC2)sc1C(=O)OC	> 100 µM	> 100 µM	> 100 µM	> 100 µM	> 100 µM	> 100 µM							> 100 µM							
O=NN(CCCl)C(=O)NC1CCCCC1	40.9 µM and 98.4 µM and 57.5 µM	69.9 µM and > 80.6 µM and 83.8 µM	56.2 µM and 152 µM	43.9 µM and 228 µM and 106 µM	32.8 µM and 111 µM and 76.6 µM	34 µM and 84.4 µM and 124 µM	8.23 µM and 22.6 µM	41.5 µM and 41 µM	84.4	10.9 µM and 36.6 µM	17.3	21 µM and 33.6 µM	57.9 µM and 120 µM and 235 µM	16.4 µM and 33 µM		132 µM			57 µM	117
CN(C)c1ccc(O[Si](Oc2ccc(N(C)C)cc2)(Oc2ccc(N(C)C)cc2)Oc2ccc(N(C)C)cc2)cc1	> 100 µM	> 100 µM	> 100 µM	> 100 µM	> 100 µM	> 100 µM							> 100 µM							
CN(C)c1ccc(N=C2C=CC(=C(C#N)C#N)c3ccccc32)cc1	3.46 µM	0.391 µM	16.3 µM	5.71 µM		0.576 µM							8.1 µM			3.34 µM			2.66 µM	7.51
CCOc1ccccc1NC(=O)C1=C(C)NC(C)=C(C(=O)Nc2ccccc2OCC)C1c1ccc([N+](=O)[O-])cc1		> 100 µM	> 100 µM		> 100 µM	> 100 µM							> 100 µM							
Nc1nc(=S)[nH]c(C(=O)Nc2nccs2)c1-c1ccccc1	> 100 µM	> 100 µM	> 100 µM	> 100 µM	> 100 µM	> 100 µM							> 100 µM							
COc1cc(CCc2ccc(OC(C)=O)cc2)cc(OC)c1OC	> 100 µM	> 100 µM	> 100 µM	> 100 µM	> 100 µM	> 100 µM							> 100 µM							
CC(=O)OCC1OC(n2c(=S)n(-c3ccccc3)c(=O)c3cc(Br)cc(Br)c32)C(OC(C)=O)C(OC(C)=O)C1OC(C)=O (stereo unspecified)	> 100 µM	> 100 µM		> 100 µM	> 100 µM	> 100 µM						35.2 µM and 94.8 µM	> 100 µM	43.9 µM and > 100 µM						
